Experimental data taken from patent publication US8664276B2, “Stilbene analogs and methods of treating cancer” (University of Kentucky Research Foundation, priority 2011, dated 2014).
Blank lines part the entries; values can stand above or below the molecule they belong to.

Experiments:
[1] = system: Wnt target genes, Axin2 and c-Myc; assay: Western blot of Wnt target proteins in LS174 CRC cells; assay type: cell-based
Procedure: Western blot. Western blots were performed using the following antibodies: β-catenin (Sigma, C2206), c-Myc (Epitomics, 1472-1), Axin2 (Cell Signaling, 2151), β-Actin (Sigma, A1978), TCF4 (Epitomics, 2114-1) and pygopus2 (Santa Cruz, sc-74878), Cyclin D1 (Cell signaling, 2926).
(§1) Cyclin B1 levels were decreased, whereas p21^WAF1/CIP1 levels increased, consistent with the fact that p21^WAF1/CIP1 expression is repressed by c-Myc. β-catenin levels were not affected by resveratrol. Next, the mRNA levels of β-catenin target genes were analyzed using RT-PCR. Expression of survivin, Lgr5, CD44, and c-Myc were decreased in resveratrol-treated cells.
A panel of stilbene analogs was designed and synthesized (FIGS. 2, 3, 5A and 6A). […] However, the solubility of 4d was poor and it was not effective below 10 μM concentrations (data not shown). To improve its solubility and activity, compound 4d was modified with 2′-fluoro 4e, 3′-fluoro 4f and 4′-fluoro 4g substituents (FIG. 5D). Both compounds 4e and 4f had good activity at 10 μM, (E)-4-(2-fluorostyryl)-N,N-dimethylaniline.
(§2) Western blot and cell proliferation assay. The activity of fluorinated N,N-dialkylaminostilbenes (FIDAS or FIDAS agents) on Wnt signaling activity in cancer cells were analyzed by Western blot with antibodies against Wnt target genes, such as c-Myc, Axin2. The effects of FlDAS agents on cancer cell growth were analyzed using Cell Viability Analyzer (Beckman Coulter, Vi-Cell XR). These assays have been described previously (see Zhang et al., J. of Med. Chem. 54, 1288-1297 (2011)).

Solubility = assay type: physicochemical
Tolerability in mice = assay type: in vivo
Procedure: Therefore, as shown in this example, the halogenated stilbene analogs of the present disclosure are capable of inhibiting CRC both in vitro and in vivo. In another study, it was shown that mice could tolerate at least 200 mg/kg of a halogenated stilbene analog, FlDAS 4dd.

LS174 CRC cells = assay: CRC cell proliferation assay (Vi-Cell); assay type: cell-based
Procedure: Luciferase and cell proliferation assay. HEK293T cells were transiently transfected in a 12-well plate with 0.2 μg of the Super8xTOPFlash reporter and 0.05 μg of Renilla luciferase reporter. Culture medium was changed after 12 h. After 6 h, cells were treated with DMSO or Wnt inhibitors for 12 h, and then treated with 25 mM LiCl or Wnt conditioned medium. After 12 h, cells were harvested and luciferase activity measured by Dual-luciferase Reporter Assay System (Promega, Madison Wis.). All conditions were done in triplicate and each experiment was carried out at least two times. For cell proliferation assay, CRC cells were treated with DMSO or inhibitors for 2d and 4d. The cell numbers and viability were analyzed by Vi-Cell Cell Viability Analyzer.
as §2

HT29 xenografted tumors = assay: HT29 tumor xenograft in nude mice, oral gavage; assay type: in vivo; settings: HT29, 20 mg/kg in PEG400 by gavage
Procedure: Tumor xenograft in nude mice. LS174 or HT29 colon cancer cells (2×10^6) were injected subcutaneously into both flanks of 6-8 week C57BL/6J athymic nude mice as described in Zhang et al., Mol Cell Biol 2006, 26, 2055-2064. Compound 4r or 4dd was dissolved in corn oil or PEG400. The mice were treated with 20 mg/kg/day of 4r by ip injection or gavage (50 μl/mouse). Control mice were treated with same volume of corn oil or PEG400. The body weight and tumor growth were analyzed twice weekly for one month. Tumor size was measured using digital caliper. The tumor volume was calculated by the formula: V=½LW^2 (mm^3).
Xenografted nude mice were developed according to the protocol described above and in Zhang et al., J. of Med. Chem. 54, 1288-1297 (2011)). Briefly, HT29 cells were injected subcutaneously into the flanks of nude mice. The mice were then treated with 20 mg/kg compound 4dd dissolved in PEG400 by gavage. As described in Example 7, an IP injection of compound 4r dissolved in corn oil inhibited xenograft tumor growth. Here, it was also shown that the halogenated stilbenes of the present disclosure can also be dissolved in other solvents such as PEG400 and cyclodextran.

liver cancer cells = assay: Liver cancer cell proliferation; assay type: cell-based; settings: FIG. 15
Procedure: as §2
As previously shown, several metabolites of the halogenated stilbenes of the present disclosure were synthesized (Example 2 and FIG. 3). In this study, the effects of some of these metabolites on cell proliferation were studied.

MAT2A [2] = target: T1, MAT2A (Homo sapiens, UniProt P31153); assay: Cell based SAM and SAH analysis in LS174 colon cancer cells (LC-MS/MS); design: endogenous in cells; host or cells: LS174T; settings: 3 μM of 4dd versus 10 uM of 4r and 30 uM of resveratrol
Procedure: (§3) SAM and SAH analysis by LC-MS/MS. The LC-MS/MS system consisted of two Varian ProStar 210 LC Pumps coupled with a Varian 1200L triple quadrupole mass spectrometer. The separation was performed on a Hypercarb column (50 mm×2.1 mm, […], Thermo Scientific #35003-052130). Gradient elution started with 98% solution A (0.1% formic acid in water), followed by an increase to 38% solution B (0.1% formic acid in acetonitrile) in 8 min. The column was than flushed with 90% B for 5 min and regenerated with 98% A for another 8 min. The flow rate was 0.25 mL/min. Between the 3rd and 11th min, the eluent was switched to the ion source of the mass spectrometer. The precursor product transitions for SAM (m/z 399→250), SAH (m/z 385→250) and [d-4]-SAH (m/z 389→136) were monitored. The optimized ion source parameters were: Capillary Voltage: 32 V for both SAM and SAH, Collision energy: 9 V and 7V for SAM and SAH, respectively, Needle voltage: 5000 V and the Shield voltage: 600V. Nitrogen was used as the drying gas at a temperature of 300° C. and the interface heater was set to 50° C. The drying gas and nebulizing gas were set to 20 and 50 psi, respectively.
Cell based SAM analysis. […] 5 ul of supernatants were analyzed by LC-MS/MS using a modified method based on a previous publication (see Krijt et al., J Chromatogr B Analyt Technol Biomed Life Sci 877, 2061-6, (2009)). […]

Wnt signaling = assay: TopFlash luciferase reporter assay in HEK293T cells; assay type: cell-based; settings: HEK293T
Procedure: Luciferase and cell proliferation assay. HEK293T cells were transiently transfected in a 12-well plate with 0.2 μg of the Super8xTOPFlash reporter and 0.05 μg of Renilla luciferase reporter. Culture medium was changed after 12 h. After 6 h, cells were treated with DMSO or Wnt inhibitors for 12 h, and then treated with 25 mM LiCl or Wnt conditioned medium. After 12 h, cells were harvested and luciferase activity measured by Dual-luciferase Reporter Assay System (Promega, Madison Wis.). All conditions were done in triplicate and each experiment was carried out at least two times. For cell proliferation assay, CRC cells were treated with DMSO or inhibitors for 2d and 4d. The cell numbers and viability were analyzed by Vi-Cell Cell Viability Analyzer. To identify Wnt pathway inhibitors for CRC prevention and treatment, a number of anti-cancer agents from plants were screened using the TopFlash reporter assay. The TopFlash reporter was transfected into HEK293T cells, and the cells were treated with Wnt3A-conditioned medium in order to activate the luciferase reporter. […] To determine if resveratrol regulates β-catenin degradation, the cells were treated with 25 mM LiCl, which inhibits GSK-3 and stabilizes β-catenin. In this assay, LiCl activated the reporter more strongly than Wnt3A conditioned medium. […] Emodin is an anti-cancer agent from plants; it exists in many unpurified resveratrol products. Emodin had no effect on Wnt signaling. See Zhang et al., J. of Med. Chem. 54, 1288-1297 (2011).

β-catenin target genes = assay: RT-PCR of β-catenin target genes in LS174 cells; assay type: cell-based; settings: LS174 cells
Procedure: RT-PCR. LS174 cells were treated with DMSO or Wnt inhibitors. After 36 h, RNA was isolated using the RNeasy kit (Qiagen). RT-PCR was performed as described in Zhang et al., Mol Cell Biol 2006, 26, 2055-2064. The following primers were used: β-actin: 5′-CAACCGCGAGAAGATGAC-3′ (SEQ ID NO:01), 5′-AGGAAGGCTGGAAGAGTG-3′ (SEQ ID NO:02); surivivin: 5′-[…]-3′ (SEQ ID NO:03), 5′-[…]-3′ (SEQ ID NO:04); c-Myc: 5′-TGGGCTGTGAGGAGGTTTG-3′ (SEQ ID NO:05), 5′-TATGTGGAGCGGCTTCTCG-3′ (SEQ ID NO:06); Axin2: 5′-[…]-3′ (SEQ ID NO:07), 5′-[…]-3′ (SEQ ID NO:08); TCF4: 5′-[…]-3′ (SEQ ID NO:09), 5′-[…]-3′ (SEQ ID NO:10); pygopus2: 5′-GGCCGGTCTGCAAATGAAG-3′ (SEQ ID NO:11), 5′-TCCACCTCCAGTGCTGTAG-3′ (SEQ ID NO:12); Lgr5: 5′-[…]-3′ (SEQ ID NO:13), 5′-[…]-3′ (SEQ ID NO:14); CD44: 5′-[…]-3′ (SEQ ID NO:15), 5′-[…]-3′ (SEQ ID NO:16); Ki67: 5′-[…]-3′ (SEQ ID NO:17), 5′-[…]-3′ (SEQ ID NO:18).
as §1

MAT2A [3] = target: T1, MAT2A; assay: In-vitro SAM synthesis by MAT2A (LC-MS/MS); assay type: biochemical; design: GST (N); made in house
Procedure: as §3
SAM synthesis. […] purified MAT2A was incubated with 1 mM L-methionine and 1 mM ATP in […] reaction solution (50 mM Tris.Cl, 50 mM KCl, 10 mM MgCl2) for 5 min at 25° C. […] SAM was analyzed by LC-MS/MS. […]

solubility (Solubility): poor
Structure (SMILES): CN(C)c1ccc(/C=C/c2ccccc2)cc1 [4d, (E)-4-styryl-N,N-dimethylaniline, reference compound]
repression of Wnt target genes at 30 μM ([1]; 30 μM, CRC cells): strongly repressed | Wnt inhibitory activity in Western blot, qualitative or relative to a comparator ([1]; CRC cells): more active than 4-methoxystilbene (4b) | effectiveness on Wnt target genes below 10 μM ([1]; below 10 μM concentrations (data not shown)): not effective

Structure (SMILES): CNc1ccc(/C=C/c2c(F)cccc2Cl)cc1 [4dd, (E)-4-(2-chloro-6-fluorostyryl)-N-methylaniline]
tolerated dose (Tolerability in mice): at least 200 mg/kg | body weights (Tolerability in mice; 200 mg/kg (data not shown)): reduced after one week but were recovered to normal weight after stopping 4dd treatment | colon cancer cell proliferation, effectiveness versus resveratrol and 4r (LS174 CRC cells; FIG. 14): significantly more effective than resveratrol, as well as compound 4r | effect on body weight (HT29 xenografted tumors): without any adverse effect | growth of xenografted tumors (HT29 xenografted tumors): significantly inhibits | liver cancer cell proliferation, effectiveness versus resveratrol and 4r (liver cancer cells): significantly more effective than resveratrol, as well as compound 4r | inhibition of MAT2A and reduction of SAM and SAH (MAT2A [2]): even more potent than 4r

MAT2A activity in SAM synthesis (MAT2A [3]): inhibit MAT2A activity
Structure (SMILES): Oc1ccc(/C=C/c2cc(O)cc(O)c2)cc1 [resveratrol, trans- or (E)-3,5,4′-trihydroxystilbene, reference compound]
LiCl-induced Wnt signaling (Wnt signaling; 25 mM LiCl): strongly inhibited | Wnt-induced luciferase activity (Wnt signaling; Wnt3A-conditioned medium, 100 μM): significantly inhibited | protein levels of TCF4 and pygopus2 ([1]; CRC cells): reduced | β-catenin levels ([1]; CRC cells): not affected | Cyclin B1 levels ([1]; LS174 CRC cells): decreased | p21WAF1/CIP1 levels ([1]; LS174 CRC cells): increased | protein levels of c-Myc and Cyclin D1 ([1]; LS174 CRC cells): reduced | protein levels of Wnt/β-catenin targets at 100 μM ([1]; LS174 cells, 100 μM): reduced the protein levels | LS174 cell proliferation (LS174 CRC cells; treated for 2d and 4d): inhibited cell proliferation | cell proliferation marker Ki67 mRNA (β-catenin target genes): also decreased | mRNA expression of survivin, Lgr5, CD44, and c-Myc (β-catenin target genes): decreased
